PMC11157048 (Frontiers in Pharmacology, 2024)

Columns and labels:
[1] = Pharmacokinetics of aumolertinib and HAS-719 in SD rats; settings: for AUC(0-t) / AUC(0-inf) / CL/F / Cmax / Tmax / Vd/F / half-life: Sprague-Dawley, rat, plasma, po, 11 mg/kg; for CL/F: CLz/F; for Vd/F: Vz/F; for half-life: t1/2z
[2] = Pharmacokinetics in AAV8-Ctrl mice; settings: C57BL/6J, mouse, serum, po, 16.5 mg/kg; for CL/F: CLz/F; for Vd/F: Vz/F; for half-life: t1/2z
[3] = Pharmacokinetics in AAV8-CYP3A4*12 mice; settings: C57BL/6J, mouse, serum, po, 16.5 mg/kg; for CL/F: CLz/F; for Vd/F: Vz/F; for half-life: t1/2z
[4] = Pharmacokinetics in AAV8-CYP3A4*1 mice; settings: C57BL/6J, mouse, in vivo, po, 16.5 mg/kg; for CL/F: CLz/F; for Vd/F: Vz/F; for half-life: t1/2z
[5] = biological target: CYP3A4.1 (Homo sapiens, UniProt P08684); experiment: Enzyme kinetics of aumolertinib, recombinant CYP3A4.1; type: in vitro ADME; design: made in house; host or cells: Sf21 insect cells (baculovirus); settings: CYP3A4.1, text value
Description: Specifically, first the pFastBac-CYPOR-CYP3A4 and CYPb5 plasmids are constructed, then the plasmids are transformed into DH10Bac cells to obtain the bacmid DNA. Subsequently, the bacmid DNA is transfected into Sf21 insect cells to generate high titer recombinant baculoviruses. After infecting the Sf21 cells with the high titer baculovirus, the cell suspension is collected. Finally, the cells are disrupted by sonication, and the microsomes are prepared by ultracentrifugation. To examine the expression of the target proteins and the CYP content, Western blot analysis and carbon monoxide difference spectroscopy were performed, respectively.
The reaction start, termination and sample processing are the same as described above.

[6] = aumolertinib 11 mg/kg oral alone (Aum)
[7] = carvedilol 5 mg/kg oral 0.5 h before aumolertinib 11 mg/kg oral (Car + Aum)
[8] = telmisartan 8 mg/kg oral 0.5 h before aumolertinib 11 mg/kg oral (Tel + Aum)
[9] = aumolertinib 16.5 mg/kg oral alone (Aum)
[10] = carvedilol 7.5 mg/kg 0.5 h before aumolertinib 16.5 mg/kg oral (Car+Aum)
[11] = telmisartan 12 mg/kg 0.5 h before aumolertinib 16.5 mg/kg oral (Tel+Aum)

CYP3A4.1, sequence (P08684 whole entry): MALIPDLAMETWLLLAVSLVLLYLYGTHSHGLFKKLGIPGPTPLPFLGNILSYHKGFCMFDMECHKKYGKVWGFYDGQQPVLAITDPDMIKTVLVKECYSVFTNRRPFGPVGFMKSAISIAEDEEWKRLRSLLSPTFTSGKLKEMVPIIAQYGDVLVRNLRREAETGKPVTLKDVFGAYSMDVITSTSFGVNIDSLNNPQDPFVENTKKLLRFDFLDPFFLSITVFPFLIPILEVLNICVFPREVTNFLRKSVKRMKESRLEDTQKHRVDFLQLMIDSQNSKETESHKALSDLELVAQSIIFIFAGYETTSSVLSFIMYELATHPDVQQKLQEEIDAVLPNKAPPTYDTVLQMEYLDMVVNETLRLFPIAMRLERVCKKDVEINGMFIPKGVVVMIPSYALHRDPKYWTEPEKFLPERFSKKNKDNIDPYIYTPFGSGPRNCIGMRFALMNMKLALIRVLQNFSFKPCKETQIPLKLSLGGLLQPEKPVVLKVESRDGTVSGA

C=CC(=O)Nc1cc(Nc2nccc(-c3cn(C4CC4)c4ccccc34)n2)c(OC)cc1N(C)CCN(C)C [Aumolertinib]
AUC(0-t) [1, 6]: 65.9 ± 27.6 ng·h/mL | AUC(0-t) [1, 7]: 198 ± 121 ng·h/mL | AUC(0-t) [1, 8]: 153 ± 175 ng·h/mL | AUC(0-inf) [1, 6]: 65.9 ± 27.6 ng·h/mL | AUC(0-inf) [1, 7]: 203 ± 133 ng·h/mL | AUC(0-inf) [1, 8]: 153 ± 175 ng·h/mL | CL/F [1, 6]: 3090 mL/min/kg | CL/F [1, 7]: 1150 mL/min/kg | CL/F [1, 8]: 2060 mL/min/kg | Cmax [1, 6]: 9.48 ± 3.93 ng/mL | Cmax [1, 7]: 21.8 ± 8 ng/mL | Cmax [1, 8]: 8.73 ± 7.55 ng/mL | Tmax [1, 6]: 5.17 ± 1.33 h | Tmax [1, 7]: 7.33 ± 2.42 h | Tmax [1, 8]: 8.67 ± 2.73 h | Vd/F [1, 6]: 675 ± 273 L/kg | Vd/F [1, 7]: 375 ± 140 L/kg | Vd/F [1, 8]: 582 ± 299 L/kg | half-life [1, 6]: 2.62 ± 0.94 h | half-life [1, 7]: 4.44 ± 2.79 h | half-life [1, 8]: 3.21 ± 0.24 h | increase of AUC(0-t) after combination with carvedilol ([1]; carvedilol 5 mg/kg + aumolertinib 11 mg/kg oral vs aumolertinib alone): more than 3 time | AUC(0-t) [2, 9]: 1800 ng·h/mL | AUC(0-t) [2, 10]: 1970 ng·h/mL | AUC(0-t) [2, 11]: 3230 ng·h/mL | AUC(0-inf) [2, 9]: 1850 ng·h/mL | AUC(0-inf) [2, 10]: 1980 ng·h/mL | AUC(0-inf) [2, 11]: 3810 ng·h/mL | CL/F [2, 9]: 148 mL/min/kg | CL/F [2, 10]: 145 mL/min/kg | CL/F [2, 11]: 83 mL/min/kg | Cmax [2, 9]: 177 ± 59.9 ng/mL | Cmax [2, 10]: 99.8 ± 27.5 ng/mL | Cmax [2, 11]: 163 ± 65.6 ng/mL | Tmax [2, 9]: 1.29 ± 0.49 h | Tmax [2, 10]: 17.7 ± 10.7 h | Tmax [2, 11]: 2.43 ± 1.13 h | Vd/F [2, 9]: 98.8 ± 56.3 L/kg | Vd/F [2, 10]: 38.6 ± 23.7 L/kg | Vd/F [2, 11]: 68.2 ± 44.6 L/kg | half-life [2, 9]: 8.21 ± 5.1 h | half-life [2, 10]: 3.12 ± 1.79 h | half-life [2, 11]: 9.43 ± 4.77 h | AUC(0-t) [3, 9]: 3300 ng·h/mL | AUC(0-t) [3, 10]: 2480 ng·h/mL | AUC(0-t) [3, 11]: 4460 ng·h/mL | AUC(0-inf) [3, 9]: 3460 ng·h/mL | AUC(0-inf) [3, 10]: 2510 ng·h/mL | AUC(0-inf) [3, 11]: 8020 ng·h/mL | CL/F [3, 9]: 87.2 mL/min/kg | CL/F [3, 10]: 124 mL/min/kg | CL/F [3, 11]: 51.3 mL/min/kg | Cmax [3, 9]: 194 ± 48.8 ng/mL | Cmax [3, 10]: 143 ± 102 ng/mL | Cmax [3, 11]: 186 ± 74.4 ng/mL | Tmax [3, 9]: 5.14 ± 8.32 h | Tmax [3, 10]: 8 ± 7.57 h | Tmax [3, 11]: 9.43 ± 10.2 h | Vd/F [3, 9]: 83.2 ± 30.5 L/kg | Vd/F [3, 10]: 70.4 ± 38.6 L/kg | Vd/F [3, 11]: 90.3 ± 85 L/kg | half-life [3, 9]: 11.9 ± 5.16 h | half-life [3, 10]: 6.44 ± 2.34 h | half-life [3, 11]: 29.1 ± 28.9 h | AUC(0-t) [4, 9]: 1370 ng·h/mL | AUC(0-t) [4, 10]: 1730 ng·h/mL | AUC(0-t) [4, 11]: 2890 ng·h/mL | AUC(0-inf) [4, 9]: 1390 ng·h/mL | AUC(0-inf) [4, 10]: 1970 ng·h/mL | AUC(0-inf) [4, 11]: 3710 ng·h/mL | CL/F [4, 9]: 221 mL/min/kg | CL/F [4, 10]: 145 mL/min/kg | CL/F [4, 11]: 110 mL/min/kg | Cmax [4, 9]: 95.4 ± 26.4 ng/mL | Cmax [4, 10]: 96.5 ± 39 ng/mL | Cmax [4, 11]: 154 ± 62.7 ng/mL | Tmax [4, 9]: 1.64 ± 1.18 h | Tmax [4, 10]: 11.6 ± 11.7 h | Tmax [4, 11]: 16.3 ± 14.1 h | Vd/F [4, 9]: 165 ± 125 L/kg | Vd/F [4, 10]: 105 ± 73.6 L/kg | Vd/F [4, 11]: 49.9 ± 33.6 L/kg | half-life [4, 9]: 7.89 ± 2.76 h | half-life [4, 10]: 9.63 ± 8.92 h | half-life [4, 11]: 5.75 ± 3.22 h | Clint [5]: 0.58 μL/min/pmol CYP | Km ([5]; human, recombinant CYP3A4.1 cell microsomes (Sf21 insect cells)): 3.2 µM
